Where “and” joins values, the source holds several entries; their conditions need not be identical. Equal values may be shown once. Entries after “also recorded” stand apart in the source; their conditions may differ. Where a name gives a salt, the structure may show the parent alone. Values belong to the compound of their own block, whether it stands above or below them.
Columns and labels:
[1] = tested on: interferon alpha (Mu-IFN-α); assay: Murine interferon alpha in plasma of dosed mice; type: in vivo; details: for Plasma Concentration of Interferon Alpha (Mu-IFN-α), Mean / Plasma Concentration of Interferon Alpha (Mu-IFN-α), Individual Value: single oral 73.0 mg/kg dose
Excerpt: The normal mouse provides a useful system for the assessment of the degree to which the inventions described herein provide material improvement in the oral delivery of 1 (isatoribine). Not only can one measure the plasma concentrations of isatoribine arising from oral administration of the said prodrug(s) but also the extensive immunological research conducted in the mouse has provided reagents suitable for measuring the levels of interferon alpha, a cytokine of interest reflecting one of the desired biologic activities of isatoribine.
Table 1 records the results of an assay for murine interferon alpha in the plasma of mice that were dosed two times with isatoribine, formulated in bicarbonate, at a level of 50 mg/kg by the oral route.
Table 2 records the results of assays for murine interferon alpha in the plasma of mice that first were dosed with bicarbonate and then four hours later were dosed orally with isatoribine, formulated in bicarbonate, at a level of 50 mg/kg. Interferon was reported in the plasma from four mice, including two that had received the bicarbonate vehicle dose.
Table 3 records the results of assays for murine interferon alpha in the plasma of mice that were dosed orally with val-isatoribine, dissolved in bicarbonate, at a dose that is equivalent to 50/mg/kg of isatoribine on a molar basis. […] Interferon was detected in all mice assayed at a given time point, indicating the reliability of the effect following val-isatoribine administration.
In other experiments, plasma levels of isatoribine and interferon alpha were measured in mice that were dosed with isatoribine by the intravenous route, and these levels were compared to the levels of isatoribine and interferon alpha arising after oral administration of val-isatoribine. […] Thus, oral val-isatoribine provides levels of isatoribine and interferon that are approximately 50% of those observed after intravenous administration of isatoribine itself.

[2] = Systemic exposure to isatoribine after oral administration to beagle dogs; type: in vivo; details: both 10 and 50 mg/kg
Method: The effect of a prodrug (val-isatoribine, 3) on the systemic exposure to isatoribine (1) after oral administration to beagle dogs was investigated. Isatoribine was prepared in sodium bicarbonate solution.
Four male and four female adult beagle dogs weighing between 15 to 27 kg and approximately 1-2 years old were used at the beginning of the study. The animals were divided into 2 groups of 2 males and 2 females each. The test material was administered by gavage on Days 1 and 8, allowing a 7-day washout period between administrations. Blood samples (2 mL) were collected from each animal at predose, 15, 30 minutes, 1, 2, 3, 4, 6, 8 and 10 hours into lithium heparin tubes after each dosing. The plasma was frozen at −70° C. until analysis. The plasma was analyzed for isatoribine by an HPLC-MS/MS assay.

[3] = tested on: beagle dogs; assay: Toxicology studies in beagle dogs (GI tolerance); details: dogs; for Emesis or loose stool / GI lesions or irritation: Oral Val-Isatoribine
Method: Formal toxicology studies of intravenously administered isatoribine and orally administered isatoribine and val-isatoribine were conducted in beagle dogs.
In each case the compound was administered as a solution, by gavage or by intravenous infusion. Multiple parameters were assessed, as is customary in a toxicology study. In the studies providing higher potential exposure to isatoribine, the plasma concentration of isatoribine was assessed by a LC/MS method.

[4] = in vitro; type: in vitro ADME; details: human, Caco-2
Excerpt: (§1) See, e.g., Hilgers, A. R. et al., Pharm. Res., 20(8), 1149-55 (August 2003).

[5] = tested on: Caco-2 cells; assay: in vitro; type: in vitro ADME; details: human
Excerpt: as §1

[6] = oral dosing, studies of Tables 1-3
[7] = isatoribine equivalent applied dose 8.1 mg/kg
[8] = isatoribine equivalent applied dose 16 mg/kg
[9] = isatoribine equivalent applied dose 32 mg/kg
[10] = isatoribine equivalent applied dose 64 mg/kg

SMILES: CC(C)[C@H](N)C(=O)OC[C@H]1O[C@@H](n2c(=O)sc3c(O)nc(N)nc32)[C@H](O)[C@@H]1O (as salt: hydrochloride) [Compound 3, 5-Amino-3-(5′-O-L-valinyl-β-D-ribofuranosyl)thiazolo[4,5-d]pyrimidine-2,7-dione Dihydrochloride]
melting point: 166 to 168 °C (dec.)

SMILES: CN[C@H](C(=O)OC[C@H]1O[C@@H](n2c(=O)sc3c(O)nc(N)nc32)[C@H](O)[C@@H]1O)C(C)C (as salt: hydrochloride) [Compound 11, 5-Amino-3-(5′-O-[α-L-N-methylvalinyl]-β-D-ribofuranosyl)thiazolo[4,5-d]pyrimidine-2,7-dione Hydrochloride]
melting point: > 180 °C (dec.)

SMILES: CC(C)[C@H](N)C(=O)OC[C@H]1O[C@@H](n2c(=O)sc3c(O)nc(N)nc32)[C@H](O)[C@@H]1O [Compound 3, 5-Amino-3-(5′-O-L-valinyl-β-D-ribofuranosyl)thiazolo[4,5-d]pyrimidine-2,7-dione Dihydrochloride]
increase of magnitude of average and peak interferon response versus isatoribine ([1]; mice, oral): twofold
level of interferon relative to intravenous isatoribine ([1]; mice, oral, 50 mg/kg isatoribine molar equivalent, vs intravenous isatoribine 25 mg/kg, FIG. 1): approximately 50%
interferon in plasma ([1]; mice, oral, equivalent to 50 mg/kg isatoribine): readily measurable at 1.0 hour, 1.5 hours, and 2.0 hours after dosing
Plasma Concentration of Interferon Alpha (Mu-IFN-α), Mean ([1]; mice, 0.00 h): 0.00 pg/mL
Plasma Concentration of Interferon Alpha (Mu-IFN-α), Individual Value ([1]; mice, 0.00 h, listed as Val-Isatoribine, Dihydrochloride, 73 mg/kg): BQL (Below the Quantifiable Limit < 12.5 pg/mL); also recorded: BQL^125 pg/mL; also recorded: BQL^25 pg/mL
Plasma Concentration of Interferon Alpha (Mu-IFN-α), Individual Value ([1]; mice, 0.25 h): BQL (Below the Quantifiable Limit < 12.5 pg/mL)
Plasma Concentration of Interferon Alpha (Mu-IFN-α), Mean ([1]; mice, 0.25 h): 0.00 pg/mL
Plasma Concentration of Interferon Alpha (Mu-IFN-α), Mean ([1]; mice, 0.50 h): 0.00 pg/mL
Plasma Concentration of Interferon Alpha (Mu-IFN-α), Individual Value ([1]; mice, 0.50 h, listed as Val-Isatoribine, Dihydrochloride, 73 mg/kg): BQL^25 pg/mL; also recorded: BQL (Below the Quantifiable Limit < 12.5 pg/mL)
Plasma Concentration of Interferon Alpha (Mu-IFN-α), Mean ([1]; mice, 0.75 h): 0.00 pg/mL
Plasma Concentration of Interferon Alpha (Mu-IFN-α), Individual Value ([1]; mice, 0.75 h, listed as Val-Isatoribine, Dihydrochloride, 73 mg/kg): BQL (Below the Quantifiable Limit < 12.5 pg/mL); also recorded: BQL^25 pg/mL
Plasma Concentration of Interferon Alpha (Mu-IFN-α), Mean ([1]; mice, 1.00 h): 129.1 pg/mL
Plasma Concentration of Interferon Alpha (Mu-IFN-α), Individual Value ([1]; mice, 1.00 h, listed as Val-Isatoribine, Dihydrochloride, 73 mg/kg): 173.2 pg/mL and 125.1 pg/mL and 89.0 pg/mL
Plasma Concentration of Interferon Alpha (Mu-IFN-α), Mean ([1]; mice, 1.50 h): 214.5 pg/mL
Plasma Concentration of Interferon Alpha (Mu-IFN-α), Individual Value ([1]; mice, 1.50 h, listed as Val-Isatoribine, Dihydrochloride, 73 mg/kg): 202.9 pg/mL and 145.9 pg/mL and 294.8 pg/mL
Plasma Concentration of Interferon Alpha (Mu-IFN-α), Mean ([1]; mice, 2.00 h): 108.5 pg/mL
Plasma Concentration of Interferon Alpha (Mu-IFN-α), Individual Value ([1]; mice, 2.00 h, listed as Val-Isatoribine, Dihydrochloride, 73 mg/kg): 49.2 pg/mL and 137.9 pg/mL and 138.3 pg/mL
Plasma Concentration of Interferon Alpha (Mu-IFN-α), Individual Value ([1]; mice, 3.00 h): BQL^25 pg/mL
Plasma Concentration of Interferon Alpha (Mu-IFN-α), Mean ([1]; mice, 3.00 h): 0.00 pg/mL
Plasma Concentration of Interferon Alpha (Mu-IFN-α), Mean ([1]; mice, 4.00 h): 9.20 pg/mL
Plasma Concentration of Interferon Alpha (Mu-IFN-α), Individual Value ([1]; mice, 4.00 h, listed as Val-Isatoribine, Dihydrochloride, 73 mg/kg): BQL^25 pg/mL and 27.6 pg/mL and BQL (Below the Quantifiable Limit < 12.5 pg/mL)
Plasma Concentration of Interferon Alpha (Mu-IFN-α), Mean ([1]; mice, 5.00 h): 0.00 pg/mL
Plasma Concentration of Interferon Alpha (Mu-IFN-α), Individual Value ([1]; mice, 5.00 h, listed as Val-Isatoribine, Dihydrochloride, 73 mg/kg): BQL (Below the Quantifiable Limit < 12.5 pg/mL); also recorded: BQL^25 pg/mL
mice with interferon detected in plasma [1, 6]: 10 of the 30
proportion of mice exhibiting an interferon response [1, 6]: 30%
maximum concentrations of isatoribine compared to isatoribine itself [2]: at least doubled
GI lesions ([3]; oral): No GI lesions were found
Emesis or loose stool [3, 7]: Neg.
GI lesions or irritation [3, 7]: Neg.
Emesis or loose stool [3, 8]: Neg.
GI lesions or irritation [3, 8]: Neg.
Emesis or loose stool [3, 9]: Neg.
GI lesions or irritation [3, 9]: Neg.
Emesis or loose stool [3, 10]: Neg.
GI lesions or irritation [3, 10]: Neg.
GI lesions or irritation ([3]; isatoribine equivalent applied dose 130 mg/kg): Neg.
GI lesions or irritation ([3]; isatoribine equivalent applied dose 260 mg/kg): Neg.
GI lesions or irritation ([3]; isatoribine equivalent applied dose 390 mg/kg): Neg.

SMILES: Nc1nc(NC2CCCC2)c2sc(=O)n([C@@H]3O[C@H](CO)[C@@H](O)[C@H]3O)c2n1 [Compound 22, 5-Amino-7-cyclopentylamino-3-β-D-ribofuranosylthiazolo[4,5-d]pyrimidin-2-one]
melting point: > 108 °C (dec.)

SMILES: Nc1nc(N2CCCC2)c2sc(=O)n([C@@H]3O[C@H](CO)[C@@H](O)[C@H]3O)c2n1 [Compound 23, 5-Amino-7-pyrrolidino-3-β-D-ribofuranosylthiazolo[4,5-d]pyrimidin-2-one]
melting point: > 112.4 °C (dec.)

SMILES: CC(=O)OC[C@H]1O[C@@H](n2c(=O)sc3cnc(N)nc32)[C@H](OC(C)=O)[C@@H]1OC(C)=O [Compound 78, 5-Amino-3-(2′,3′,5′-tri-O-acetyl-β-D-ribofuranosyl)-3H-thiazolo[4,5-d]pyrimidin-2-one]
Papp A→B [4]: 60 ×10⁻⁶ cm/s
Caco2 transport compared with 79 [5]: significantly improved transport over 79
melting point: 121 to 123 °C

SMILES: Nc1ncc2sc(=O)n([C@@H]3O[C@H](CO)[C@@H](O)[C@H]3O)c2n1 [Compound 79, 5-Amino-3-β-D-ribofuranosyl-3H-thiazolo-[4,5-d]pyrimidin-2-one]
Papp A→B [4]: 10 ×10⁻⁶ cm/s
melting point: 220 °C (dec.)

SMILES: CC(=O)O[C@@H]1[C@H](OC(C)=O)[C@@H](CO)O[C@H]1n1c(=O)sc2cnc(N)nc21 [Compound 89, 5-Amino-3-(2′,3′-di-O-acetyl-β-D-ribofuranosyl)-3H-thiazolo[4,5-d]pyrimidin-2-one]
Papp A→B [4]: 20 ×10⁻⁶ cm/s
Caco2 transport compared with 79 [5]: significantly improved transport over 79
melting point: 109 to 111 °C

The next lines start with the values.

melting point: > 160 °C (dec.)
SMILES: COc1nc(N)nc2c1sc(=O)n2[C@@H]1O[C@H](CO)[C@@H](O)[C@H]1O [Compound 14, 5-Amino-3-β-D-ribofuranosyl-7-methoxy-thiazolo[4,5-d]pyrimidin-2-one]

melting point: > 155 °C (dec.)
SMILES: Nc1nc(N)c2sc(=O)n([C@@H]3O[C@H](CO)[C@@H](O)[C@H]3O)c2n1 [Compound 15, 5,7-Diamino-3-β-D-ribofuranosylthiazolo[4,5-d]pyrimidin-2-one]

melting point: > 108 °C
SMILES: CNc1nc(N)nc2c1sc(=O)n2[C@@H]1O[C@H](CO)[C@@H](O)[C@H]1O [Compound 18]

melting point: > 112 °C
SMILES: CN(C)c1nc(N)nc2c1sc(=O)n2[C@@H]1O[C@H](CO)[C@@H](O)[C@H]1O [Compound 20, 5-Amino-7-dimethylamino-3-β-D-ribofuranosylthiazolo[4,5-d]pyrimidin-2-one]

Source: US20080070852A1, “3-Beta-D-Ribofuranosylthiazolo[ 4,5-D] Pyridimine Nucleosides and Uses Thereof” (priority 2004, published 2008)
